{"source": "paper PMC5218480", "about": "(PLoS ONE, 2017)", "test_system": "MV-4-11 cells", "test": "Gene expression microarray analysis (Affymetrix PrimeView) and GSEA", "type": "cell-based, human", "parameters": "RFU PODN (11730768_x_at) / Fold change /veh PODN (11730768_x_at) / RFU LINC00158 (11744669_a_at) / Fold change /veh LINC00158 (11744669_a_at) / RFU DUSP10 (11751237_a_at) / Fold change /veh DUSP10 (11751237_a_at) / RFU ID3 (11757404_x_at) / Fold change /veh ID3 (11757404_x_at) / RFU PLEKHG5 (11737974_s_at) / Fold change /veh PLEKHG5 (11737974_s_at) / RFU LRRC4B (11730491_at) / Fold change /veh LRRC4B (11730491_at) / RFU GIMAP4 (11747438_a_at) / Fold change /veh GIMAP4 (11747438_a_at) / RFU KRT8 (11758183_x_at) / Fold change /veh KRT8 (11758183_x_at) / RFU CNN1 (11734310_a_at) / Fold change /veh CNN1 (11734310_a_at) / RFU VPS37D (11726825_at) / Fold change /veh VPS37D (11726825_at) / RFU C10orf10 (11716522_x_at) / Fold change /veh C10orf10 (11716522_x_at) / RFU KIR2DL2 /// KIR2DL4 /// KIR2DL5A /// KIR2DL5B /// KIR2DS1 /// KIR2DS2 /// KIR2DS3 /// KIR2DS4 /// KIR3DL3 /// KIR3DL3 /// KIR3DS1 (11738374_at) / Fold change /veh KIR2DL2 /// KIR2DL4 /// KIR2DL5A /// KIR2DL5B /// KIR2DS1 /// KIR2DS2 /// KIR2DS3 /// KIR2DS4 /// KIR3DL3 /// KIR3DL3 /// KIR3DS1 (11738374_at) / RFU C1QL1 (11718748_at) / Fold change /veh C1QL1 (11718748_at) / RFU TMPRSS4 (11747572_a_at) / Fold change /veh TMPRSS4 (11747572_a_at) / RFU HAMP (11756126_x_at) / Fold change /veh HAMP (11756126_x_at) / RFU RNFT2 (11725882_a_at) / Fold change /veh RNFT2 (11725882_a_at) / RFU NR4A2 (11747474_a_at) / Fold change /veh NR4A2 (11747474_a_at) / RFU ABCC12 (11746883_a_at) / Fold change /veh ABCC12 (11746883_a_at) / RFU TMEM136 (11760407_x_at) / Fold change /veh TMEM136 (11760407_x_at) / RFU CLDN22 /// WWC2 (11732394_at) / Fold change /veh CLDN22 /// WWC2 (11732394_at) / RFU HLA-DPB1 (11760878_x_at) / Fold change /veh HLA-DPB1 (11760878_x_at) / RFU SPINT1 (11716480_a_at) / Fold change /veh SPINT1 (11716480_a_at) / RFU GAP43 (11754022_s_at) / Fold change /veh GAP43 (11754022_s_at) / RFU A4GNT (11735810_at) / Fold change /veh A4GNT (11735810_at) / RFU PRB3 (11715151_x_at) / Fold change /veh PRB3 (11715151_x_at) / RFU TUBB4B (11761932_at) / Fold change /veh TUBB4B (11761932_at) / RFU CAPN14 (11732068_a_at) / Fold change /veh CAPN14 (11732068_a_at) / RFU TMCC2 (11721928_a_at) / Fold change /veh TMCC2 (11721928_a_at) / RFU IRGQ (11745062_a_at) / Fold change /veh IRGQ (11745062_a_at) / RFU FAM174B (11720279_a_at) / Fold change /veh FAM174B (11720279_a_at) / RFU TMPRSS4 (11748680_a_at) / Fold change /veh TMPRSS4 (11748680_a_at) / RFU FAM212B (11763350_a_at) / Fold change /veh FAM212B (11763350_a_at) / RFU PLEKHG5 (11743358_a_at) / Fold change /veh PLEKHG5 (11743358_a_at) / RFU ZSCAN30 (11745921_a_at) / Fold change /veh ZSCAN30 (11745921_a_at) / RFU CMKLR1 (11741424_a_at) / Fold change /veh CMKLR1 (11741424_a_at) / RFU LOC101060620 /// MAPK8IP1 (11723275_at) / Fold change /veh LOC101060620 /// MAPK8IP1 (11723275_at) / RFU SPTSSB (11747773_x_at) / Fold change /veh SPTSSB (11747773_x_at) / RFU PRSS12 (11739890_at) / Fold change /veh PRSS12 (11739890_at) / RFU BIN1 (11741810_x_at) / Fold change /veh BIN1 (11741810_x_at) / RFU WNT11 (11732464_a_at) / Fold change /veh WNT11 (11732464_a_at) / RFU C10orf10 (11716521_a_at) / Fold change /veh C10orf10 (11716521_a_at) / RFU C5orf56 (11738089_at) / Fold change /veh C5orf56 (11738089_at) / RFU CYB561 (11721691_x_at) / Fold change /veh CYB561 (11721691_x_at) / RFU ANKRD19P (11752326_a_at) / Fold change /veh ANKRD19P (11752326_a_at) / RFU OR2T12 /// OR2T33 /// OR2T8 (11738714_s_at) / Fold change /veh OR2T12 /// OR2T33 /// OR2T8 (11738714_s_at) / RFU VCAN (11748164_a_at) / Fold change /veh VCAN (11748164_a_at) / RFU JSRP1 (11732532_at) / Fold change /veh JSRP1 (11732532_at) / RFU KRTAP10-11 (11738290_x_at) / Fold change /veh KRTAP10-11 (11738290_x_at) / RFU MYO3A (11730013_a_at) / Fold change /veh MYO3A (11730013_a_at) / RFU EBF3 (11725865_a_at) / Fold change /veh EBF3 (11725865_a_at) / RFU CAMK2N1 (11719241_x_at) / Fold change /veh CAMK2N1 (11719241_x_at) / RFU C5orf56 (11738088_a_at) / Fold change /veh C5orf56 (11738088_a_at) / RFU OLFML3 (11715873_a_at) / Fold change /veh OLFML3 (11715873_a_at) / RFU LOC100653217 /// NTM (11731650_a_at) / Fold change /veh LOC100653217 /// NTM (11731650_a_at) / RFU MAPK11 (11762145_a_at) / Fold change /veh MAPK11 (11762145_a_at) / RFU FIZ1 (11724087_x_at) / Fold change /veh FIZ1 (11724087_x_at) / RFU OASL (11726364_x_at) / Fold change /veh OASL (11726364_x_at) / RFU SOX15 (11748057_x_at) / Fold change /veh SOX15 (11748057_x_at) / RFU CD79A (11719716_a_at) / Fold change /veh CD79A (11719716_a_at) / RFU HIST1H1D (11736915_at) / Fold change /veh HIST1H1D (11736915_at) / RFU CASKIN2 (11723855_a_at) / Fold change /veh CASKIN2 (11723855_a_at) / RFU LOC730098 (11760151_x_at) / Fold change /veh LOC730098 (11760151_x_at) / RFU OR4N2 (11742367_at) / Fold change /veh OR4N2 (11742367_at) / RFU PRRT2 (11749266_a_at) / Fold change /veh PRRT2 (11749266_a_at) / RFU SNX32 (11753110_a_at) / Fold change /veh SNX32 (11753110_a_at) / RFU CDHR5 (11726645_a_at) / Fold change /veh CDHR5 (11726645_a_at) / RFU RCAN1 (11760418_a_at) / Fold change /veh RCAN1 (11760418_a_at) / RFU FAM167A (11723789_a_at) / Fold change /veh FAM167A (11723789_a_at) / RFU FAM26E (11764081_at) / Fold change /veh FAM26E (11764081_at) / RFU ISYNA1 (11749810_s_at) / Fold change /veh ISYNA1 (11749810_s_at) / RFU ACY1 (11761880_at) / Fold change /veh ACY1 (11761880_at) / RFU 11764098_at / Fold change /veh 11764098_at / RFU SAMD14 (11745864_x_at) / Fold change /veh SAMD14 (11745864_x_at) / RFU NPB (11741838_a_at) / Fold change /veh NPB (11741838_a_at) / RFU TMPRSS6 (11731388_a_at) / Fold change /veh TMPRSS6 (11731388_a_at) / RFU KRTAP10-2 (11738614_at) / Fold change /veh KRTAP10-2 (11738614_at) / RFU ARHGAP8 /// PRR5-ARHGAP8 (11727945_x_at) / Fold change /veh ARHGAP8 /// PRR5-ARHGAP8 (11727945_x_at) / RFU KRTAP5-7 /// NADSYN1 (11734609_at) / Fold change /veh KRTAP5-7 /// NADSYN1 (11734609_at) / RFU RASL12 (11751679_a_at) / Fold change /veh RASL12 (11751679_a_at) / RFU CDKN2B (11736163_a_at) / Fold change /veh CDKN2B (11736163_a_at) / RFU PRF1 (11729649_at) / Fold change /veh PRF1 (11729649_at) / RFU, ZNF638 /// ZNF638-IT1 / Fold change vs veh, ZNF638 /// ZNF638-IT1 / RFU, PANK3 / Fold change vs veh, PANK3 / RFU, SH3YL1 / Fold change vs veh, SH3YL1 / RFU, ZEB2 / Fold change vs veh, ZEB2 / RFU, NRIP1 / Fold change vs veh, NRIP1 / RFU, PTTG1IP / Fold change vs veh, PTTG1IP / RFU, CAPN2 / Fold change vs veh, CAPN2 / RFU, MED14 / Fold change vs veh, MED14 / RFU, SNORA58 / Fold change vs veh, SNORA58 / RFU, C1orf63 / Fold change vs veh, C1orf63 / RFU, LRRFIP1 / Fold change vs veh, LRRFIP1 / RFU, NDUFAF7 / Fold change vs veh, NDUFAF7 / RFU, SLC12A2 / Fold change vs veh, SLC12A2 / RFU, IBTK / Fold change vs veh, IBTK / RFU, ESF1 / Fold change vs veh, ESF1 / Fold change vs veh, TMEM50B / RFU, TAOK1 / Fold change vs veh, TAOK1 / RFU, ACBD3 / Fold change vs veh, ACBD3 / RFU, TMA16 / Fold change vs veh, TMA16 / RFU, RWDD3 / Fold change vs veh, RWDD3 / RFU, BCAT1 / Fold change vs veh, BCAT1 / RFU, EDEM3 / Fold change vs veh, EDEM3 / RFU, TMEM33 / Fold change vs veh, TMEM33 / RFU, WDR75 / Fold change vs veh, WDR75 / RFU, AHCTF1 / Fold change vs veh, AHCTF1 / RFU, TFRC / Fold change vs veh, TFRC / RFU, ZDHHC17 / Fold change vs veh, ZDHHC17 / RFU, NOM1 / Fold change vs veh, NOM1 / RFU, ARL8B / Fold change vs veh, ARL8B / RFU, ZBTB11 / Fold change vs veh, ZBTB11 / RFU, TAMM41 / Fold change vs veh, TAMM41 / RFU, KIAA1704 /// LOC100996395 / Fold change vs veh, KIAA1704 /// LOC100996395 / RFU, ING1 / Fold change vs veh, ING1 / RFU, TRMT61B / Fold change vs veh, TRMT61B / RFU, FUBP3 / Fold change vs veh, FUBP3 / RFU, TP53 / Fold change vs veh, TP53 / RFU, TNKS2 / Fold change vs veh, TNKS2 / RFU, ZFP14 / Fold change vs veh, ZFP14 / RFU, ACTR2 / Fold change vs veh, ACTR2 / RFU, PPP3R1 / Fold change vs veh, PPP3R1 / RFU, PIK3R1 / Fold change vs veh, PIK3R1 / RFU, HNRNPA1 / Fold change vs veh, HNRNPA1 / RFU, RNF170 / Fold change vs veh, RNF170 / RFU, ZNF28 / Fold change vs veh, ZNF28 / RFU, RNGTT / Fold change vs veh, RNGTT / RFU, OGT / Fold change vs veh, OGT / RFU, BRD1 / Fold change vs veh, BRD1 / RFU, MARS / Fold change vs veh, MARS / RFU, ZNF655 / Fold change vs veh, ZNF655 / RFU, FAHD1 / Fold change vs veh, FAHD1 / RFU, BDP1 / Fold change vs veh, BDP1 / RFU, LRRCC1 / Fold change vs veh, LRRCC1 / RFU, ARID1A / Fold change vs veh, ARID1A / RFU, ZNF146 / Fold change vs veh, ZNF146 / RFU, ZNF330 / Fold change vs veh, ZNF330 / RFU, GPN3 / Fold change vs veh, GPN3 / RFU, C9orf123 / Fold change vs veh, C9orf123 / RFU, N4BP2L2 / Fold change vs veh, N4BP2L2 / RFU, ARFIP1 / Fold change vs veh, ARFIP1 / RFU, FAM179B / Fold change vs veh, FAM179B / RFU, BCL10 / Fold change vs veh, BCL10 / RFU, UHRF1BP1L / Fold change vs veh, UHRF1BP1L / RFU, BET1 / Fold change vs veh, BET1 / RFU, CNOT2 / Fold change vs veh, CNOT2 / RFU, ZNF268 / Fold change vs veh, ZNF268 / Fold change vs veh, ZNF507 / RFU, DGCR2 / Fold change vs veh, DGCR2 / RFU, WDSUB1 / Fold change vs veh, WDSUB1 / Fold change vs veh, HSP90B1 /// MIR3652 / RFU, ADSS / Fold change vs veh, ADSS / RFU, GK / Fold change vs veh, GK / RFU, ZNF148 / Fold change vs veh, ZNF148 / RFU, TAF9 / Fold change vs veh, TAF9 / RFU, SLC1A5 / Fold change vs veh, SLC1A5 / RFU, SLMO2 / Fold change vs veh, SLMO2 / RFU, ABCC4 / Fold change vs veh, ABCC4 / RFU, LOC101060439 /// RAP1B / Fold change vs veh, LOC101060439 /// RAP1B / RFU, RFX7 / Fold change vs veh, RFX7 / RFU, GTPBP10 / Fold change vs veh, GTPBP10 / RFU, CNEP1R1 / Fold change vs veh, CNEP1R1 / RFU, BIVM-ERCC5 /// ERCC5 / Fold change vs veh, BIVM-ERCC5 /// ERCC5 / RFU, ILF3 / Fold change vs veh, ILF3 / RFU 11762660_at / Fold change /veh 11762660_at / RFU VCAN (11757783_s_at) / Fold change /veh VCAN (11757783_s_at) / RFU DDX43 (11728927_at) / Fold change /veh DDX43 (11728927_at) / RFU KRT8 (11758188_x_at) / Fold change /veh KRT8 (11758188_x_at) / RFU NKD1 (11759106_at) / Fold change /veh NKD1 (11759106_at) / RFU SRD5A1 (11742802_a_at) / Fold change /veh SRD5A1 (11742802_a_at) / RFU TPSAB1 /// TPSB2 (11721975_s_at) / Fold change /veh TPSAB1 /// TPSB2 (11721975_s_at) / RFU GSTM3 (11746129_a_at) / Fold change /veh GSTM3 (11746129_a_at) / RFU IL23R (11737362_x_at) / Fold change /veh IL23R (11737362_x_at) / RFU TMEM51 (11727254_a_at) / Fold change /veh TMEM51 (11727254_a_at) / RFU PIWIL2 (11732686_x_at) / Fold change /veh PIWIL2 (11732686_x_at) / RFU ORM1 (11744905_x_at) / Fold change /veh ORM1 (11744905_x_at) / RFU CCDC152 (11743942_at) / Fold change /veh CCDC152 (11743942_at) / RFU ECM1 (11717891_a_at) / Fold change /veh ECM1 (11717891_a_at) / RFU IL23R (11748794_a_at) / Fold change /veh IL23R (11748794_a_at) / RFU TNFAIP8L3 (11732012_x_at) / Fold change /veh TNFAIP8L3 (11732012_x_at) / RFU MBOAT4 (11741988_at) / Fold change /veh MBOAT4 (11741988_at) / RFU 11764193_at / Fold change /veh 11764193_at / RFU TMEM53 (11763286_at) / Fold change /veh TMEM53 (11763286_at) / RFU MAGEB2 (11727129_at) / Fold change /veh MAGEB2 (11727129_at) / RFU TMEM200A (11744735_a_at) / Fold change /veh TMEM200A (11744735_a_at) / RFU CCDC152 (11751479_a_at) / Fold change /veh CCDC152 (11751479_a_at) / RFU FAM211A (11726209_a_at) / Fold change /veh FAM211A (11726209_a_at) / RFU RGS16 (11746705_a_at) / Fold change /veh RGS16 (11746705_a_at) / RFU VCAN (11755009_s_at) / Fold change /veh VCAN (11755009_s_at) / RFU RHOB (11743442_s_at) / Fold change /veh RHOB (11743442_s_at) / RFU RGS16 (11720943_a_at) / Fold change /veh RGS16 (11720943_a_at) / RFU RGS16 (11720944_at) / Fold change /veh RGS16 (11720944_at) / RFU, VPS4B / Fold change vs veh, VPS4B / RFU, CREB1 / Fold change vs veh, CREB1 / RFU, DNAJC13 / Fold change vs veh, DNAJC13 / RFU, GNAQ / Fold change vs veh, GNAQ / RFU, CDK5R1 / Fold change vs veh, CDK5R1 / RFU, ZRANB3 / Fold change vs veh, ZRANB3 / RFU, CUL4A / Fold change vs veh, CUL4A / RFU, CCNY / Fold change vs veh, CCNY / RFU, UFL1 / Fold change vs veh, UFL1 / RFU, COG3 / Fold change vs veh, COG3 / RFU, DIAPH2 / Fold change vs veh, DIAPH2 / RFU, SKA2 / Fold change vs veh, SKA2 / RFU, AFF3 / Fold change vs veh, AFF3 / RFU, LMF1 / Fold change vs veh, LMF1 / RFU, IPO11 / Fold change vs veh, IPO11 / RFU, DFFB / Fold change vs veh, DFFB / RFU, FOXP1 / Fold change vs veh, FOXP1 / RFU, CARD8 / Fold change vs veh, CARD8 / RFU, STRN3 / Fold change vs veh, STRN3 / RFU, ADK / Fold change vs veh, ADK / RFU, RASSF2 / Fold change vs veh, RASSF2 / RFU, WIPF1 / Fold change vs veh, WIPF1 / RFU, LARP1B / Fold change vs veh, LARP1B / RFU, RASA1 / Fold change vs veh, RASA1 / RFU, RB1 / Fold change vs veh, RB1 / RFU, PPFIA1 / Fold change vs veh, PPFIA1 / RFU, MAT2A / Fold change vs veh, MAT2A / RFU, CCT5 / Fold change vs veh, CCT5 / RFU, WDR92 / Fold change vs veh, WDR92 / RFU, CUX1 / Fold change vs veh, CUX1 / RFU, TTC7A / Fold change vs veh, TTC7A / RFU, TMEM135 / Fold change vs veh, TMEM135 / RFU, DEPTOR / Fold change vs veh, DEPTOR / RFU, CPM / Fold change vs veh, CPM / RFU, DNAJB6 / Fold change vs veh, DNAJB6 / RFU, CACNA2D3 / Fold change vs veh, CACNA2D3 / RFU, DTX4 / Fold change vs veh, DTX4 / RFU, TFCP2 / Fold change vs veh, TFCP2 / RFU, GMCL1 /// GMCL1P1 / Fold change vs veh, GMCL1 /// GMCL1P1 / RFU, AEBP2 / Fold change vs veh, AEBP2 / RFU, SNHG1 /// SNORD22 /// SNORD25 /// SNORD26 /// SNORD27 /// SNORD28 /// SNORD29 /// SNORD31 / Fold change vs veh, SNHG1 /// SNORD22 /// SNORD25 /// SNORD26 /// SNORD27 /// SNORD28 /// SNORD29 /// SNORD31 / Fold change (Aza/veh), C12orf56 (ProbeSet 11735607_a_at) / Fold change (ACY-1035/veh), C12orf56 (ProbeSet 11735607_a_at) / Fold change (Aza/veh), FGFR1OP (ProbeSet 11751329_s_at) / Fold change (ACY-1035/veh), FGFR1OP (ProbeSet 11751329_s_at) / Fold change (Aza/veh), VPS36 (ProbeSet 11739960_a_at) / Fold change (ACY-1035/veh), VPS36 (ProbeSet 11739960_a_at) / RFU SYPL1 (11715823_x_at) / Fold change /veh SYPL1 (11715823_x_at) / RFU IGFBP7 (11715501_s_at) / Fold change /veh IGFBP7 (11715501_s_at) / RFU REEP3 (11722064_at) / Fold change /veh REEP3 (11722064_at) / RFU IGLL1 (11728026_x_at) / Fold change /veh IGLL1 (11728026_x_at): dose or concentration left out as unconfirmed", "settings": "MV-4-11 cells, 48 hours"}
{"smiles": "Nc1ncn([C@@H]2O[C@H](CO)[C@@H](O)[C@H]2O)c(=O)n1", "note": "[azacitidine]", "values": [{"measurement": "Fold change /veh OASL (11726364_x_at)", "value": 0.86}]}
